Legend:
[1] = molecular target: T1, CMV polymerase (Human cytomegalovirus, UniProt P08546); test: HCMV polymerase assay, scintillation proximity assay (SPA), modified version; format: biochemical; conditions: modified HCMV polymerase SPA assay: compounds diluted in 100% DMSO, 4.5 mM DTT in polymerase buffer, different lot of CMV polymerase; read-out: CMV polymerase IC50
T1 construct: made in house; host or cells: recombinant baculovirus-infected SF-9 cells
Description: The HCMV polymerase assay is performed using a scintillation proximity assay (SPA) as described in several references, such as N. D. Cook, et al., Pharmaceutical Manufacturing International, pages 49-53 (1992); K. Takeuchi, Laboratory Practice, September issue (1992); U.S. Pat. No. 4,568,649 (1986); which are incorporated by reference herein. Reactions are performed in 96-well plates. The assay is conducted in 100 μl volume with 5.4 mM HEPES (pH 7.5), 11.7 mM KCl, 4.5 mM MgCl2, 0.36 mg/ml BSA, and 90 nM ^3H-dTTP. Assays are run with and without CHAPS, (3-[(3-Cholamidopropyl)-dimethylammonio]-1-propane-sulfonate) at a final concentration of 2 mM. HCMV polymerase is diluted in enzyme dilution buffer containing 50% glycerol, 250 mM NaCl, 10 mM HEPES (pH 7.5), 100 μg/ml BSA, and 0.01% sodium azide. The HCMV polymerase, which is expressed in recombinant baculovirus-infected SF-9 cells and purified according to literature procedures, is added at 10% (or 10 μl) of the final reaction volume, i.e., 100 μl. Compounds are diluted in 50% DMSO and 10 μl are added to each well. Control wells contain an equivalent concentration of DMSO. Unless noted otherwise, reactions are initiated via the addition of 6 nM biotinylated poly(dA)-oligo(dT) template/primer to reaction mixtures containing the enzyme, substrate, and compounds of interest. Plates are incubated in a 25 C. or 37 C. H2O bath and terminated via the addition of 40 μl/reaction of 0.5 M EDTA (pH 8) per well. Reactions are terminated within the time-frame during which substrate incorporation is linear and varied depending upon the enzyme and conditions used, i.e., 30 min. for HCMV polymerase. Ten μl of streptavidin-SPA beads (20 mg/ml in PBS/10% glycerol) are added following termination of the reaction. Plates are incubated 10 min. at 37 C., then equilibrated to room temperature, and counted on a Packard Topcount. Linear regressions are performed and IC50's are calculated using computer software.
A modified version of the above HCMV polymerase assay is performed as described above, but with the following changes: Compounds are diluted in 100% DMSO until final dilution into assay buffer. In the previous assay, compounds are diluted in 50% DMSO. 4.5 mM dithiotherotol (DTT) is added to the polymerase buffer.

T1 sequence (P08546 whole entry): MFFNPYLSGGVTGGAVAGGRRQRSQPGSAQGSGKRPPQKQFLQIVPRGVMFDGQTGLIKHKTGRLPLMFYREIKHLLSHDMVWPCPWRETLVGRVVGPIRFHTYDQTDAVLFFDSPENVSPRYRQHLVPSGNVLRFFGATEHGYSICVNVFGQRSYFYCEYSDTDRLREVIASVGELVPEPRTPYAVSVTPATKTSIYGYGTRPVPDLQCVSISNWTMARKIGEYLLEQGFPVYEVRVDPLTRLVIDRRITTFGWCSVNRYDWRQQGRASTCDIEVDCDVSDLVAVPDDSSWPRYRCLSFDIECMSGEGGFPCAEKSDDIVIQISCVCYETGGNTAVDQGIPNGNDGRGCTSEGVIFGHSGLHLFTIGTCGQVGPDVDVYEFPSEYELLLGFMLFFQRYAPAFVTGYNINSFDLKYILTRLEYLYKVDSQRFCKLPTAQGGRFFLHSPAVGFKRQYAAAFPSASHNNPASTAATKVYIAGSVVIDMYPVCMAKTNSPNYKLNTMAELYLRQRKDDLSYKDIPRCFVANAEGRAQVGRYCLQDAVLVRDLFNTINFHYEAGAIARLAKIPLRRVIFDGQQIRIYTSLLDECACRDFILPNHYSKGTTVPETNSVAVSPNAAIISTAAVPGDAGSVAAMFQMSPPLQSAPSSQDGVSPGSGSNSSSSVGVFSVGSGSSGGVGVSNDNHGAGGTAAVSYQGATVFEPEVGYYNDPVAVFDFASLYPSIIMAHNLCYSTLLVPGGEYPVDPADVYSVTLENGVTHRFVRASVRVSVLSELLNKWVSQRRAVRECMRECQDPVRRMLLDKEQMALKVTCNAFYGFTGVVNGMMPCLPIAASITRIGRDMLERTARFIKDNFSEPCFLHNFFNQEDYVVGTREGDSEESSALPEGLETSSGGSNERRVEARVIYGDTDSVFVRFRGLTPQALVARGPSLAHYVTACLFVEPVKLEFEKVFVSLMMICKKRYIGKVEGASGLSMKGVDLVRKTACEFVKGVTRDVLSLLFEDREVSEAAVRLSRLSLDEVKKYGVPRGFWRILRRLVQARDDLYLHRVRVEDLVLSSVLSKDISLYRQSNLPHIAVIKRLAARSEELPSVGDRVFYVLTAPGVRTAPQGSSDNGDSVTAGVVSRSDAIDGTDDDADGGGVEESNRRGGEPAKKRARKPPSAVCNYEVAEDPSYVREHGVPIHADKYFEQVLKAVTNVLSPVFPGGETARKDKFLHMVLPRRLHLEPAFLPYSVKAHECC

| Compound | melting point | IC50 [1] [nM] |
| --- | --- | --- |
| O=C(NCc1ccc(Cl)cc1)c1cn2c3c(cc(CN4CCOCC4)cc3c1=O)OC(CN1CCOCC1)C2 (stereo not shown) [Example 2, N-(4-Chlorobenzyl)-2,9-bis(4-morpholinylmethyl)-7-oxo-2,3-dihydro-7H-[1,4]oxazino[2,3,4-ij]quinoline-6-carboxamide] | 178 to 180 °C | 760 |
| CN(C)CC1Cn2cc(C(=O)NCc3ccc(Cl)cc3)c(=O)c3cc(CN4CCOCC4)cc(c32)O1 (stereo not shown) [Example 3, N-(4-Chlorobenzyl)-2-[(dimethylamino)methyl]-9-(4-morpholinylmethyl)-7-oxo-2,3-dihydro-7H-[1,4]oxazino[2,3,4-ij]quinoline-6-carboxamide] | 168 to 170 °C | 760 |
| CN1CCN(CC2Cn3cc(C(=O)NCc4ccc(Cl)cc4)c(=O)c4cc(CN5CCOCC5)cc(c43)O2)CC1 (stereo not shown) [Example 4, N-(4-Chlorobenzyl)-2-[(4-methyl-1-piperazinyl)methyl]-9-(4-morpholinylmethyl)-7-oxo-2,3-dihydro-7H-[1,4]oxazino[2,3,4-ij]quinoline-6-carboxamide] | 201 to 208 °C (dec.) | 1300 |
| O=C(NCc1ccc(Cl)cc1)c1cn2c3c(cc(CN4CCOCC4)cc3c1=O)OC(CN1CCCC1)C2 (stereo not shown) [Example 5, N-(4-Chlorobenzyl)-9-(4-morpholinylmethyl)-7-oxo-2-(1-pyrrolidinylmethyl)-2,3-dihydro-7H-[1,4]oxazino[2,3,4-ij]quinoline-6-carboxamide] | 209.5 to 212 °C | 1100 |
| O=C(NCc1ccc(Cl)cc1)c1cn2c3c(cc(CN4CCOCC4)cc3c1=O)OC(CN1CCCCC1)C2 (stereo not shown) [Example 8, N-(4-Chlorobenzyl)-9-(4-morpholinylmethyl)-7-oxo-2-(1-piperidinylmethyl)-2,3-dihydro-7H-[1,4]oxazino[2,3,4-ij]quinoline-6-carboxamide] | 213 to 215 °C | 1500 |
| O=C(NCc1ccc(Cl)cc1)c1cn2c3c(cc(CN4CCOCC4)cc3c1=O)OC(CNCc1ccncc1)C2 (stereo not shown) [Example 12, N-(4-Chlorobenzyl)-9-(4-morpholinylmethyl)-7-oxo-2-{[(4-pyridinylmethyl)amino]methyl}-2,3-dihydro-7H-[1,4]oxazino[2,3,4-ij]quinoline-6-carboxamide] | 164 to 167 °C | 590 |
| O=C(NCc1ccc(Cl)cc1)c1cn2c3c(cc(CN4CCOCC4)cc3c1=O)OC(Cn1ccnc1)C2 (stereo not shown) [Example 13, N-(4-Chlorobenzyl)-2-(1H-imidazol-1-ylmethyl)-9-(4-morpholinylmethyl)-7-oxo-2,3-dihydro-7H-[1,4]oxazino[2,3,4-ij]quinoline-6-carboxamide] | 217 to 219 °C (dec.) | 590 |
| CSCC1Cn2cc(C(=O)NCc3ccc(Cl)cc3)c(=O)c3cc(CN4CCOCC4)cc(c32)O1 (stereo not shown) [Example 14, N-(4-Chlorobenzyl)-2-[(methylsulfanyl)methyl]-9-(4-morpholinylmethyl)-7-oxo-2,3-dihydro-7H-[1,4]oxazino[2,3,4-ij]quinoline-6-carboxamide] | 190 to 191 °C | 550 |
| CC(C)(C)SCC1Cn2cc(C(=O)NCc3ccc(Cl)cc3)c(=O)c3cc(CN4CCOCC4)cc(c32)O1 (stereo not shown) [Example 15, 2-[(tert-Butylsulfanyl)methyl]-N-(4-chlorobenzyl)-9-(4-morpholinylmethyl)-7-oxo-2,3-dihydro-7H-[1,4]oxazino[2,3,4-ij]quinoline-6-carboxamide] | 198 to 201 °C | 420 |
| COC(=O)CSCC1Cn2cc(C(=O)NCc3ccc(Cl)cc3)c(=O)c3cc(CN4CCOCC4)cc(c32)O1 (stereo not shown) [Example 18, Methyl ({[6-{[(4-chlorobenzyl)amino]carbonyl}-9-(4-morpholinylmethyl)-7-oxo-2,3-dihydro-7H-[1,4]oxazino[2,3,4-ij]quinolin-2-yl]methyl}sulfanyl)acetate] | 182.5 to 183 °C | 580 |
| CC(=O)OCC1Cn2cc(C(=O)NCc3ccc(Cl)cc3)c(=O)c3cc(CN4CCOCC4)cc(c32)O1 (stereo not shown) [Example 24, [6-{[(4-Chlorobenzyl)amino]carbonyl}-9-(4-morpholinylmethyl)-7-oxo-2,3-dihydro-7H-[1,4]oxazino[2,3,4-ij]quinolin-2-yl]methyl acetate] | 215 to 218 °C | 740 |
| O=C(NCc1ccc(Cl)cc1)c1cn2c3c(cc(CN4CCOCC4)cc3c1=O)OC(F)(F)C2 [Example 28, N-(4-Chlorobenzyl)-2,2-difluoro-9-(4-morpholinylmethyl)-7-oxo-2,3-dihydro-7H-[1,4]oxazino[2,3,4-ij]quinoline-6-carboxamide] | 213.5 to 216.5 °C | 600 |
| O=C(NCc1ccc(Cl)cc1)c1cn2c3c(cc(CN4CCOCC4)cc3c1=O)OC(c1cccnc1)C2 (stereo not shown) [Example 34, N-(4-Chlorobenzyl)-9-(4-morpholinylmethyl)-7-oxo-2-(3-pyridinyl)-2,3-dihydro-7H-[1,4]oxazino[2,3,4-ij]quinoline-6-carboxamide] |  | 480 |
| O=C(NCc1ccc(Cl)cc1)c1cn2c3c(cc(CN4CCOCC4)cc3c1=O)OC(c1ccncc1)C2 (stereo not shown) [Example 35, N-(4-Chlorobenzyl)-9-(4-morpholinylmethyl)-7-oxo-2-(4-pyridinyl)-2,3-dihydro-7H-[1,4]oxazino[2,3,4-ij]quinoline-6-carboxamide] |  | 610 |
| N#Cc1cccc(C2Cn3cc(C(=O)NCc4ccc(Cl)cc4)c(=O)c4cc(CN5CCOCC5)cc(c43)O2)c1 (stereo not shown) [Example 36, N-(4-Chlorobenzyl)-2-(3-cyanophenyl)-9-(morpholin-4-ylmethyl)-7-oxo-2,3-dihydro-7H-[1,4]oxazino[2,3,4-ij]quinoline-6-carboxamide] |  | 420 |
| O=C(NCc1ccc(Cl)cc1)c1cn2c3c(cc(CN4CCOCC4)cc3c1=O)OC(c1ccoc1)C2 (stereo not shown) [Example 37, N-(4-Chlorobenzyl)-2-(3-furyl)-9-(morpholin-4-ylmethyl)-7-oxo-2,3-dihydro-7H-[1,4]oxazino[2,3,4-ij]quinoline-6-carboxamide] | 193 to 196 °C | 380 |
| O=C(NCc1ccc(Cl)cc1)c1cn2c3c(cc(CN4CCOCC4)cc3c1=O)OC(c1cccs1)C2 (stereo not shown) [Example 38, N-(4-Chlorobenzyl)-9-(morpholin-4-ylmethyl)-7-oxo-2-thien-2-yl-2,3-dihydro-7H-[1,4]oxazino[2,3,4-ij]quinoline-6-carboxamide] |  | 460 |
| O=C(NCc1ccc(Cl)cc1)c1cn2c3c(cc(CN4CCOCC4)cc3c1=O)OC(c1cc(F)cc(F)c1)C2 (stereo not shown) [Example 39, N-(4-Chlorobenzyl)-2-(3,5-difluorophenyl)-9-(morpholin-4-ylmethyl)-7-oxo-2,3-dihydro-7H-[1,4]oxazino[2,3,4-ij]quinoline-6-carboxamide] | 234 to 236 °C | 330 |
| O=C(NCc1ccc(Cl)cc1)c1cn2c3c(cc(CN4CCOCC4)cc3c1=O)OC(c1ccc3c(c1)OCO3)C2 (stereo not shown) [Example 40, 2-(1,3-Benzodioxol-5-yl)-N-(4-chlorobenzyl)-9-(morpholin-4-ylmethyl)-7-oxo-2,3-dihydro-7H-[1,4]oxazino[2,3,4-ij]quinoline-6-carboxamide] | 227 to 231 °C | 330 |
| O=C(NCc1ccc(Cl)cc1)c1cn2c3c(cc(CN4CCOCC4)cc3c1=O)OC(CNCc1ccc(Cl)cc1)C2 (stereo not shown) [Example 56, N-(4-Chlorobenzyl)-2-{[(4-chlorobenzyl)amino]methyl}-9-(morpholin-4-ylmethyl)-7-oxo-2,3-dihydro-7H-[1,4]oxazino[2,3,4-ij]quinoline-6-carboxamide] |  | 660 |
| COCOc1ccccc1C1Cn2cc(C(=O)NCc3ccc(Cl)cc3)c(=O)c3cc(CN4CCOCC4)cc(c32)O1 (stereo not shown) [Example 64, N-(4-Chlorobenzyl)-2-[2-(methoxymethoxy)phenyl]-9-(morpholin-4-ylmethyl)-7-oxo-2,3-dihydro-7H-[1,4]oxazino[2,3,4-ij]quinoline-6-carboxamide] |  | 1050 |
| O=C(NCc1ccc(Cl)cc1)c1cn2c3c(cc(CN4CCOCC4)cc3c1=O)OC(c1ccccc1O)C2 (stereo not shown) [Example 68, N-(4-Chlorobenzyl)-2-(2-hydroxyphenyl)-9-(morpholin-4-ylmethyl)-7-oxo-2,3-dihydro-7H-[1,4]oxazino[2,3,4-ij]quinoline-6-carboxamide] |  | 820 |
